Test results from patent US20050282818A1, “Ubiquitin ligase inhibitors” (Rigel Pharmaceuticals, Inc., priority 2004, published 2005).
pIC50: −log10 of the molar value.

Tests used:
[1] = target: T1, TRAF6/Uev1A/Ubc13 (Homo sapiens, UniProt Q9Y4K3); assay: TRAF6/Uev1A/Ubc13 plate-based ubiquitin ligase assay; assay type: biochemical
T1 sequence (Q9Y4K3 1-522): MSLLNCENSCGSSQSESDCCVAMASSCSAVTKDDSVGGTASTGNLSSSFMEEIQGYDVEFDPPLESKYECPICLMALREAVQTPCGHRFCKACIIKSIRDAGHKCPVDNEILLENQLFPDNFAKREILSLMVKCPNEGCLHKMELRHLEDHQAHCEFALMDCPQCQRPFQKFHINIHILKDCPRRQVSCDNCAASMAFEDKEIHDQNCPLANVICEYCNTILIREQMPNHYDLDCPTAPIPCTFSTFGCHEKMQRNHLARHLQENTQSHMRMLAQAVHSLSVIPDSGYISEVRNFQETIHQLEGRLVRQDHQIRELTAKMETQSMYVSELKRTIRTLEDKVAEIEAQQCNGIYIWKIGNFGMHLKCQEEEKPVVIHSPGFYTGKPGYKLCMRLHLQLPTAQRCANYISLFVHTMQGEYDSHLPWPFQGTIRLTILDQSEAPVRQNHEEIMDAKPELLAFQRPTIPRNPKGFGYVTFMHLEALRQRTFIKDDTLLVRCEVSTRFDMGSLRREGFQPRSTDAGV
Procedure, shortened: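 Ligase activity was read as luminescence from anti-Flag/HRP detection of Flag-ubiquitin bound to casein-blocked Ni-plates alongside His-ubiquitin after a 1 h room-temperature reaction. Buffer: 62.5 mM Tris pH 7.5, 6.25 mM MgCl2, 1.0 mM DTT, 2 μM ATP; E1, Uev1a/Ubc13 and TRAF6 added last to start. IC50s derived across compound concentrations.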

[2] = system: ICAM-1 expression in A549 cells; assay: ICAM assay (IL-1 induced ICAM-1/CD54 expression in A549 cells); assay type: cell-based, human; settings: Homo sapiens, A549, ICAM assay
Procedure, shortened: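 A549 cells, 10,000/well, preincubated with compound 1 h at 37° C, then stimulated with IL-1 (4 μl of 25 ng/ml added) for 4 h. Surface ICAM-1 detected by anti-CD54 plus anti-mouse IgG staining for 1 h, luminescent read-out after PBS washes.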

[3] = target: APC11/APC2 (Homo sapiens, UniProt Q9NYG5+Q9UJX6); assay: APC-11/APC-2 ligase assay (APC auto ubiquitination); assay type: biochemical; settings: APC assay
Procedure, shortened: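 His-tagged APC was captured on nickel plates with human E1 (5 ng/well), UbcH5c (20 ng/well), APC (100 ng/well) and Flag-ubiquitin (100 ng/well) in a Tris pH 7.6 reaction buffer containing 2.5 mM ATP, for 1 hour at room temperature. Read-out was anti-Flag/HRP chemiluminescence. IC50 was set against a DMSO control, typically from 6 or 8 concentrations.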

Sequence of APC11/APC2 (Q9NYG5 whole entry): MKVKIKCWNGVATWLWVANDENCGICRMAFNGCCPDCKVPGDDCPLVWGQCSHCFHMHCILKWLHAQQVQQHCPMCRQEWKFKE
Sequence of APC11/APC2 (Q9UJX6 whole entry): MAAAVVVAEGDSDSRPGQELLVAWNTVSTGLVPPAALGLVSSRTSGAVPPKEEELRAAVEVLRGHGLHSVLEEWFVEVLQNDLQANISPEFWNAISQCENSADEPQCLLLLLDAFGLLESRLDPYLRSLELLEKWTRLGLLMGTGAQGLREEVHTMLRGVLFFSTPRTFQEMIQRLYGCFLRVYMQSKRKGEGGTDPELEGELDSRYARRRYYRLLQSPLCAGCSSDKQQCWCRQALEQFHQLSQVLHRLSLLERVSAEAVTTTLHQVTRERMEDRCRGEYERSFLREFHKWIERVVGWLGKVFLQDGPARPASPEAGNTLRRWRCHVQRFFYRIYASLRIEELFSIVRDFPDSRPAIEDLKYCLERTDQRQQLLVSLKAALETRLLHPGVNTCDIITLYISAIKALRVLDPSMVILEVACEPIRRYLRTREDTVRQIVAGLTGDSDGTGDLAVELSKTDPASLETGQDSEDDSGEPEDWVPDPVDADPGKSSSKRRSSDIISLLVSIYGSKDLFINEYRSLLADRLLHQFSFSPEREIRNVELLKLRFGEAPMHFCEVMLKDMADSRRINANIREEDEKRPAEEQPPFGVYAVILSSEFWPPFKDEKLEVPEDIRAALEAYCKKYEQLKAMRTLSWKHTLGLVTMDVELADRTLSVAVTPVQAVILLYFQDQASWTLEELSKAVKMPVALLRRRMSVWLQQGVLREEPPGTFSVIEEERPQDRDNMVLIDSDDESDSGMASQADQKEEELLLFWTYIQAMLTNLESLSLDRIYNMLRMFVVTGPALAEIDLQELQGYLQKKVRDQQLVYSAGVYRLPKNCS

Structure (SMILES)	pIC50 [1]	pIC50 [2]	pIC50 [3]
FC(F)(F)c1cccc(-c2cc(-c3cccc(C(F)(F)F)c3)c3nonc3c2)c1 [compound 418, 4,6-bis(3-[trifluoromethyl]phenyl)-2,1,3-benzoxadiazole]	≤ 4.70	≤ 4.70	≤ 4.70
Cc1cccc(-c2cc(-c3cccc(C)c3)c3nonc3c2)c1 [compound 419, 4,6-bis(3-methylphenyl)-2,1,3-benzoxadiazole]	≤ 4.70	≤ 4.70	≤ 4.70
FC(F)(F)c1ccc(-c2cc(-c3ccc(C(F)(F)F)cc3)c3nonc3c2)cc1 [compound 420, 4,6-bis(4-[trifluoromethyl]phenyl)-2,1,3-benzoxadiazole]	≤ 4.70	≤ 4.70	≤ 4.70
COc1cccc(-c2cc(-c3cccc(OC)c3)c3nonc3c2)c1 [compound 421, 4,6-bis(3-methoxyphenyl)-2,1,3-benzoxadiazole]	≤ 4.70	≤ 4.70	≤ 4.70
CC(C)(C)c1ccc(-c2cc(-c3ccc(C(C)(C)C)cc3)c3nonc3c2)cc1 [compound 422, 4,6-bis(4-t-butylphenyl)-2,1,3-benzoxadiazole]	≤ 4.70	≤ 4.70	≤ 4.70
COc1ccccc1-c1cc(-c2ccccc2OC)c2nonc2c1 [compound 423, 4,6-bis(2-methoxyphenyl)-2,1,3-benzoxadiazole]	≤ 4.70	≤ 4.70	≤ 4.70
O=S(=O)(Nc1ccccc1Br)c1ccc(Cl)c2nonc12 [compound 424, N-(2-bromophenyl)-7-chloro-2,1,3-benzoxadiazole-4-sulfonamide]	≤ 4.70	≤ 4.70	≤ 4.70
Oc1ccc2c(c1)cc(Sc1cccc3cccnc13)c1nonc12 [compound 425, 4-(quinolin-8-ylthio)naphtho[2,1-c][1,2,5]oxadiazol-7-ol]	≤ 4.70	≤ 4.70	≤ 4.70
Cc1cc(C)cc(-c2ccc(N)c3nonc23)c1 [compound 426, 7-(3,5-dimethylphenyl)-2,1,3-benzoxadiazol-4-amine]	≤ 4.70	≤ 4.70	≤ 4.70
O=C(Nc1ccc([N+](=O)[O-])c2nonc12)c1cccc(F)c1F [compound 427, 2,3-difluoro-N-(7-nitro-2,1,3-benzoxadiazol-4-yl)benzamide]	≤ 4.70	4.70 to 6.00	≤ 4.70
O=[N+]([O-])c1c(N2CCCCC2)cc(-c2cc(F)cc(F)c2)c2nonc12 [compound 428, 7-(3,5-difluorophenyl)-4-nitro-5-(piperidin-1-yl)-2,1,3-benzoxadiazole]	≤ 4.70	≤ 4.70	≤ 4.70
O=[N+]([O-])c1c(N2CCCCC2)cc(-c2cccc(C(F)(F)F)c2)c2nonc12 [compound 429, 7-(3-[trifluoromethyl]phenyl)-4-nitro-5-(piperidin-1-yl)-2,1,3-benzoxadiazole]	≤ 4.70	≤ 4.70	≤ 4.70
Oc1ccc2c(c1)cc(Cl)c1nonc12 [compound 430, 4-chloronaphtho[2,1-c][1,2,5]oxadiazol-7-ol]	≤ 4.70	≤ 4.70	≤ 4.70
O=[N+]([O-])c1c(N2CCCCC2)cc(-c2ccc(C(F)(F)F)cc2)c2nonc12 [compound 431, 7-(4-[trifluoromethyl]phenyl)-4-nitro-5-(piperidin-1-yl)-2,1,3-benzoxadiazole]	≤ 4.70	≤ 4.70	≤ 4.70
Cc1cccc(-c2cc(N3CCCCC3)c([N+](=O)[O-])c3nonc23)c1 [compound 432, 7-(3-methylphenyl)-4-nitro-5-(piperidin-1-yl)-2,1,3-benzoxadiazole]	≤ 4.70	≤ 4.70	≤ 4.70
CC(C)(C)c1ccc(-c2cc(N3CCCCC3)c([N+](=O)[O-])c3nonc23)cc1 [compound 433, 7-(4-t-butylphenyl)-4-nitro-5-(piperidin-1-yl)-2,1,3-benzoxadiazole]	≤ 4.70	≤ 4.70	≤ 4.70
COc1cccc(-c2cc(N3CCCCC3)c([N+](=O)[O-])c3nonc23)c1 [compound 434, 7-(3-methoxyphenyl)-4-nitro-5-(piperidin-1-yl)-2,1,3-benzoxadiazole]	≤ 4.70	≤ 4.70	≤ 4.70

Structure (SMILES)	pIC50 [1]	pIC50 [2]	pIC50 [3]
CC(C)(C)c1ccc(-c2ccc(N)c3nonc23)cc1 [compound 435, 7-(4-t-butylphenyl)-2,1,3-benzoxadiazol-4-amine]	≤ 4.70	≤ 4.70	≤ 4.70
CC(=O)Nc1ccc(-c2cc(C)cc(C)c2)c2nonc12 [compound 436, N-(7-[3,5-dimethylphenyl]-2,1,3-benzoxadiazol-4-yl)acetamide]	≤ 4.70	≤ 4.70	≤ 4.70
O=[N+]([O-])c1ccc(-c2ccccc2F)c2nonc12 [compound 437, 7-(2-fluorophenyl)-4-nitro-2,1,3-benzoxadiazole]	≤ 4.70	4.70 to 6.00	4.70 to 6.00
COCCNS(=O)(=O)c1ccc(Cl)c2nonc12 [compound 438, 7-chloro-N-(2-methoxyethyl)-2,1,3-benzoxadiazole-4-sulfonamide]	≤ 4.70	≤ 4.70	≤ 4.70
Cc1ccccc1-c1ccc([N+](=O)[O-])c2nonc12 [compound 439, 4-nitro-7-o-tolyl-2,1,3-benzoxadiazole]	≤ 4.70	4.70 to 6.00	≤ 4.70
O=[N+]([O-])c1ccc(-c2ccccc2)c2nonc12 [compound 440, 4-nitro-7-phenyl-2,1,3-benzoxadiazole]	≤ 4.70	≤ 4.70	4.70 to 6.00
CC(=O)c1ccc(-c2ccc([N+](=O)[O-])c3nonc23)cc1 [compound 441, 1-(4-[7-nitro-2,1,3-benzoxadiazol-4-yl]phenyl)ethanone]	4.70 to 6.00	4.70 to 6.00	4.70 to 6.00
O=[N+]([O-])c1ccc(-c2ccc(F)cc2)c2nonc12 [compound 442, 4-nitro-7-(4-fluorophenyl)-2,1,3-benzoxadiazole]	4.70 to 6.00	4.70 to 6.00	≤ 4.70
CC(=O)c1cccc(-c2ccc([N+](=O)[O-])c3nonc23)c1 [compound 443, 1-(3-[7-nitro-2,1,3-benzoxadiazol-4-yl]phenyl)ethanone]	4.70 to 6.00	4.70 to 6.00	4.70 to 6.00
O=[N+]([O-])c1cccc(-c2ccc([N+](=O)[O-])c3nonc23)c1 [compound 444, 4-nitro-7-(3-nitrophenyl)-2,1,3-benzoxadiazole]	4.70 to 6.00	4.70 to 6.00	4.70 to 6.00
O=S(=O)(NCCCc1ccccc1)c1ccc(Cl)c2nonc12 [compound 445, 7-chloro-N-(3-phenylpropyl)-2,1,3-benzoxadiazole-4-sulfonamide]	≤ 4.70	≤ 4.70	≤ 4.70
O=S(=O)(NCc1ccccn1)c1ccc(Cl)c2nonc12 [compound 446, 7-chloro-N-(pyridin-2-ylmethyl)-2,1,3-benzoxadiazole-4-sulfonamide]	≤ 4.70	4.70 to 6.00	≤ 4.70
O=S(=O)(NCC1CCCCC1)c1ccc(Cl)c2nonc12 [compound 447, 7-chloro-N-(cyclohexylmethyl)-2,1,3-benzoxadiazole-4-sulfonamide]	≤ 4.70	4.70 to 6.00	≤ 4.70
O=S(=O)(NC1CCCCC1)c1ccc(Cl)c2nonc12 [compound 448, 7-chloro-N-(cyclohexyl)-2,1,3-benzoxadiazole-4-sulfonamide]	≤ 4.70	4.70 to 6.00	≤ 4.70
O=S(=O)(NCC1CC1)c1ccc(Cl)c2nonc12 [compound 449, 7-chloro-N-(cyclopropylmethyl)-2,1,3-benzoxadiazole-4-sulfonamide]	≤ 4.70	≤ 4.70	≤ 4.70
COc1ccc2nonc2c1-c1cc(C)cc(C)c1 [compound 450, 4-(3,5-dimethylphenyl)-5-methoxy-2,1,3-benzoxadiazole]	≤ 4.70	≤ 4.70	≤ 4.70
O=[N+]([O-])c1ccc(C2=CCCCC2)c2nonc12 [compound 451, 4-cyclohexenyl-7-nitro-2,1,3-benzoxadiazole]	≤ 4.70	4.70 to 6.00	≤ 4.70
